Reference: the CheMixHub ionic liquid set

Assay: xn = mol fraction of the nth substance listed

Cn1cc[n+](CCC(=O)O)c1.[Cl-] + O
viscosity [mPa·s], 100 kPa
Settings	x1 = 0.0009214	x1 = 0.001799	x1 = 0.003593	x1 = 0.005399	x1 = 0.00717	x1 = 0.008993
293.15 K	1.006	1.022	1.056	1.092	1.128	1.167
298.15 K	0.893	0.907	0.937	0.966	0.995	1.03
303.15 K	0.802	0.814	0.839	0.865	0.89	0.922
308.15 K	0.726	0.735	0.759	0.783	0.807	0.831
313.15 K	0.658	0.668	0.689	0.711	0.73	0.75

Cn1cc[n+](CCC[n+]2ccn(C)c2)c1.[Br-].[Br-] + O
viscosity [mPa·s], 101 kPa
Settings	x1 = 0.0005912	x1 = 0.0006805	x1 = 0.0007474	x1 = 0.0009122	x1 = 0.00129	x1 = 0.00144	x1 = 0.001838	x1 = 0.002094	x1 = 0.002204	x1 = 0.002491
293.15 K	–	–	–	–	–	1.05	1.066	1.071	1.071	1.084
298.15 K	0.905	0.904	0.908	0.913	–	0.935	0.948	0.955	0.955	0.962
303.15 K	0.812	0.811	0.816	–	0.832	0.84	0.85	0.855	0.857	0.859
308.15 K	0.734	0.734	0.739	0.74	0.754	–	0.768	0.77	0.774	0.775
313.15 K	0.669	0.67	0.673	–	–	0.693	0.7	0.702	0.705	0.708
